For 15 compounds, IC50 results are on record in US20250145665A1, “MACROCYCLIC PEPTIDES USEFUL AS MODULATORS OF TNF ALPHA” (Bristol-Myers Squibb Company, priority 2023, published 2025).

The structures appear in SMILES notation. Starred links: 1 amine or outer side, 2 acyl side, 3 side chain; linkers in the order of their positions; H or OH if unused. Positions of bridges follow the written chain, without caps; N, C: chain ends. Non-standard residues stand in square brackets, D forms with d. Residues, ends and D or L forms follow the SMILES beside them. Bip(4'-COOH) = N[C@@H](Cc1ccc(-c2ccc(C(=O)O)cc2)cc1)C(=O)O; Bip(4'-NHAc) = CC(=O)Nc1ccc(-c2ccc(C[C@H](N)C(=O)O)cc2)cc1; Phe(3-CH2NH2) = O=C([C@H](Cc1cccc(CN[*:3])c1)N[*:1])[*:2]; Ala(morpholin-4-yl) = N[C@@H](CN1CCOCC1)C(=O)O; Bip = N[C@@H](Cc1ccc(-c2ccccc2)cc1)C(=O)O; Morpholine(3S-CO) = O=C(O)[C@@H]1COCCN1; Pro(4S-NH2) = N[C@@H]1CN[C@H](C(=O)O)C1; Val(3-OH) = CC(C)(O)[C@H](N)C(=O)O; cisHyp = O=C(O)[C@@H]1C[C@H](O)CN1; 2Pal = N[C@@H](Cc1ccccn1)C(=O)O; 3Pal = N[C@@H](Cc1cccnc1)C(=O)O; Pip = O=C(O)[C@@H]1CCCCN1; Aze = O=C(O)[C@@H]1CCN1; Sar = CNCC(=O)O Bounds are passed on as bounds.

This assay deals with TNFα (Homo sapiens, UniProt P01375). Kind of assay: TNF-Induced HEK-Blue Assay. Type of assay: cell-based. As to conditions: HEK-Blue-CD40L cells, NF-kB-driven secreted alkaline phosphatase reporter; TNFα 0.5 ng/ml; 18 h; read-out: TNF induced HEK-Blue assay IC50 value.
Chain of TNFα (P01375 77-233 limits assumed): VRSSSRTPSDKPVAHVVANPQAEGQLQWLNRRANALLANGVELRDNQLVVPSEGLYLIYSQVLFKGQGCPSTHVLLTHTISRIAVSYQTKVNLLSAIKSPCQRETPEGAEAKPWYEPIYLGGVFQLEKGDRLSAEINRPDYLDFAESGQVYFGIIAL
By IC50 is commonly meant the concentration that gives 50% inhibition. For `CC(=O)Nc1ccc(-c2ccc(C[C@@H]3NC(=O)[C@H](Cc4ccc(-c5ccccc5)cc4)NC(=O)[C@H](CN4CCOCC4)NC(=O)CSC[C@@H](C(=O)NCC(N)=O)NC(=O)[C@H](CC(C)C)NC(=O)[C@H](Cc4cccc(CN)c4)NC(=O)[C@H](C(C)C)NC(=O)[C@@H]4CCCN4C(=O)[C@H](C(C)C)NC(=O)[C@@H](CCCNC(=N)N)NC(=O)[C@H](CC(=O)O)NC(=O)[C@H](Cc4ccccn4)NC(=O)CN(C)C3=O)cc2)cc1` [Example 171] ({CH2CO}-[Ala(morpholin-4-yl)][Bip][Bip(4'-NHAc)][Sar][2Pal]D[dR]VPV[Phe(3-CH2NH2)]LCG-NH2; thioether N-13), the half-inhibitory concentration (IC50) was less than 50 nM. The figure for `CC(=O)Nc1ccc(-c2ccc(C[C@@H]3NC(=O)[C@H](Cc4ccc(-c5ccccc5)cc4)NC(=O)[C@H](CN4CCOCC4)NC(=O)CSC[C@@H](C(=O)NCC(N)=O)NC(=O)[C@H](CC(C)C)NC(=O)[C@H](Cc4ccccn4)NC(=O)[C@H](C(C)C)NC(=O)[C@@H]4CCCN4C(=O)[C@H](C(C)C)NC(=O)[C@@H](CCCNC(=N)N)NC(=O)[C@H](CC(=O)O)NC(=O)[C@H](Cc4ccccn4)NC(=O)CN(C)C3=O)cc2)cc1` [Example 172] ({CH2CO}-[Ala(morpholin-4-yl)][Bip][Bip(4'-NHAc)][Sar][2Pal]D[dR]VPV[2Pal]LCG-NH2; thioether N-13) is less than 50 nM; for `CC(=O)Nc1ccc(-c2ccc(C[C@@H]3NC(=O)[C@H](Cc4ccc(-c5ccccc5)cc4)NC(=O)[C@H](CN4CCOCC4)NC(=O)CSC[C@@H](C(=O)NCC(N)=O)NC(=O)[C@H](CC(C)C)NC(=O)[C@H](Cc4ccc(O)cc4)NC(=O)[C@H](C(C)C)NC(=O)[C@@H]4CCCN4C(=O)[C@H](CC(N)=O)NC(=O)[C@@H](CCCNC(=N)N)NC(=O)[C@H](CC(=O)O)NC(=O)[C@H](Cc4ccccn4)NC(=O)CN(C)C3=O)cc2)cc1` [Example 173] ({CH2CO}-[Ala(morpholin-4-yl)][Bip][Bip(4'-NHAc)][Sar][2Pal]D[dR]NPVYLCG-NH2; thioether N-13) it is 50 to 200 nM. On to `CC(=O)Nc1ccc(-c2ccc(C[C@@H]3NC(=O)[C@H](Cc4ccc(-c5ccccc5)cc4)NC(=O)[C@H](CN4CCOCC4)NC(=O)CSC[C@@H](C(=O)NCC(N)=O)NC(=O)[C@H](CC(C)C)NC(=O)[C@H](Cc4ccccc4)NC(=O)[C@H](C(C)C)NC(=O)[C@@H]4CCCN4C(=O)[C@H](C(C)C)NC(=O)[C@@H](CCCNC(=N)N)NC(=O)[C@H](CC(=O)O)NC(=O)[C@H](Cc4ccccc4)NC(=O)CN(C)C3=O)cc2)cc1` [Example 174] ({CH2CO}-[Ala(morpholin-4-yl)][Bip][Bip(4'-NHAc)][Sar]FD[dR]VPVFLCG-NH2; thioether N-13), for which the IC50 fell in the range of 50 to 200 nM. In the case of `CC(=O)Nc1ccc(-c2ccc(C[C@@H]3NC(=O)[C@H](Cc4ccc(-c5ccccc5)cc4)NC(=O)[C@H](C(C)(C)O)NC(=O)CSC[C@@H](C(=O)NCC(N)=O)NC(=O)[C@H](CC(C)C)NC(=O)[C@H](Cc4ccc(O)cc4)NC(=O)[C@H](C(C)C)NC(=O)[C@@H]4CCCN4C(=O)[C@H](C(C)C)NC(=O)[C@@H](CCCNC(=N)N)NC(=O)[C@H](CC(=O)O)NC(=O)[C@H](Cc4ccccn4)NC(=O)CN(C)C3=O)cc2)cc1` [Example 175] ({CH2CO}-[Val(3-OH)][Bip][Bip(4'-NHAc)][Sar][2Pal]D[dR]VPVYLCG-NH2; thioether N-13), the IC50 is less than 50 nM. As to `CC(=O)Nc1ccc(-c2ccc(C[C@@H]3NC(=O)[C@H](Cc4ccc(-c5ccccc5)cc4)NC(=O)[C@H](CN4CCOCC4)NC(=O)CSC[C@@H](C(=O)NCC(N)=O)NC(=O)[C@H](CC(C)C)NC(=O)[C@H](Cc4cccnc4)NC(=O)[C@H](C(C)C)NC(=O)[C@@H]4CCCN4C(=O)[C@H](C(C)C)NC(=O)[C@@H](CCCNC(=N)N)NC(=O)[C@H](CC(=O)O)NC(=O)[C@H](Cc4ccccn4)NC(=O)CN(C)C3=O)cc2)cc1` [Example 176] ({CH2CO}-[Ala(morpholin-4-yl)][Bip][Bip(4'-NHAc)][Sar][2Pal]D[dR]VPV[3Pal]LCG-NH2; thioether N-13), the concentration for half-maximal inhibition (IC50) was less than 50 nM.

With `CC(=O)Nc1ccc(-c2ccc(C[C@@H]3NC(=O)[C@H](Cc4ccc(-c5ccccc5)cc4)NC(=O)[C@H](CN4CCOCC4)NC(=O)CSC[C@@H](C(=O)NCC(N)=O)NC(=O)[C@H](CC(C)C)NC(=O)[C@H](Cc4ccc(O)cc4)NC(=O)[C@H](C(C)C)NC(=O)[C@@H]4CCCN4C(=O)[C@H](Cc4ccc(O)cc4)NC(=O)[C@@H](CCCNC(=N)N)NC(=O)[C@H](CC(=O)O)NC(=O)[C@H](Cc4ccccn4)NC(=O)CN(C)C3=O)cc2)cc1` [Example 177] ({CH2CO}-[Ala(morpholin-4-yl)][Bip][Bip(4'-NHAc)][Sar][2Pal]D[dR]YPVYLCG-NH2; thioether N-13), the IC50 lay in the range of 50 to 200 nM.

`CC(=O)Nc1ccc(-c2ccc(C[C@@H]3NC(=O)[C@H](Cc4ccc(-c5ccccc5)cc4)NC(=O)[C@H](C(C)(C)O)NC(=O)CSC[C@@H](C(=O)NCC(N)=O)NC(=O)[C@H](CC(C)C)NC(=O)[C@H](Cc4ccc(O)cc4)NC(=O)[C@H](C(C)C)NC(=O)[C@@H]4CCCN4C(=O)[C@H](Cc4ccc(O)cc4)NC(=O)[C@@H](CCCNC(=N)N)NC(=O)[C@H](CC(=O)O)NC(=O)[C@H](Cc4ccccn4)NC(=O)CN(C)C3=O)cc2)cc1` [Example 178] ({CH2CO}-[Val(3-OH)][Bip][Bip(4'-NHAc)][Sar][2Pal]D[dR]YPVYLCG-NH2; thioether N-13): the IC50 is less than 50 nM. On to `CC(=O)Nc1ccc(-c2ccc(C[C@@H]3NC(=O)[C@H](Cc4ccc(-c5ccccc5)cc4)NC(=O)[C@H](CN4CCOCC4)NC(=O)CSC[C@@H](C(=O)N[C@@H](CCCCN)C(=O)O)NC(=O)[C@H](CC(C)C)NC(=O)[C@H](Cc4ccc(O)cc4)NC(=O)[C@H](C(C)C)NC(=O)[C@@H]4CCCN4C(=O)[C@H](C(C)C)NC(=O)[C@@H](CCCNC(=N)N)NC(=O)[C@H](CC(=O)O)NC(=O)[C@H](Cc4ccccn4)NC(=O)CN(C)C3=O)cc2)cc1` [Example 179] ({CH2CO}-[Ala(morpholin-4-yl)][Bip][Bip(4'-NHAc)][Sar][2Pal]D[dR]VPVYLCK-OH; thioether N-13), for which the 50% inhibitory concentration (IC50) is 50 to 200 nM.

On to `CC(=O)Nc1ccc(-c2ccc(C[C@@H]3NC(=O)[C@H](Cc4ccc(-c5ccccc5)cc4)NC(=O)[C@H](CN4CCOCC4)NC(=O)CSC[C@@H](C(=O)NCC(N)=O)NC(=O)[C@H](CC(C)C)NC(=O)[C@H](Cc4ccc(O)cc4)NC(=O)[C@H](C(C)C)NC(=O)[C@@H]4COCCN4C(=O)[C@H](C(C)C)NC(=O)[C@@H](CCCNC(=N)N)NC(=O)[C@H](CC(=O)O)NC(=O)[C@H](Cc4ccccn4)NC(=O)CN(C)C3=O)cc2)cc1` [Example 180] ({CH2CO}-[Ala(morpholin-4-yl)][Bip][Bip(4'-NHAc)][Sar][2Pal]D[dR]V[Morpholine(3S-CO)]VYLCG-NH2; thioether N-13), for which the 50% inhibitory concentration (IC50) was 50 to 200 nM. The figure for `CC(=O)Nc1ccc(-c2ccc(C[C@@H]3NC(=O)[C@H](Cc4ccc(-c5ccc(C(=O)O)cc5)cc4)NC(=O)[C@H](CN4CCOCC4)NC(=O)CSC[C@@H](C(=O)NCC(N)=O)NC(=O)[C@H](CC(C)C)NC(=O)[C@H](Cc4cccc(CN)c4)NC(=O)[C@H](C(C)C)NC(=O)[C@@H]4CCN4C(=O)[C@H](C(C)C)NC(=O)[C@@H](CCCNC(=N)N)NC(=O)[C@H](CC(=O)O)NC(=O)[C@H](Cc4ccccn4)NC(=O)CN(C)C3=O)cc2)cc1` [Example 181] ({CH2CO}-[Ala(morpholin-4-yl)][Bip(4'-COOH)][Bip(4'-NHAc)][Sar][2Pal]D[dR]V[Aze]V[Phe(3-CH2NH2)]LCG-NH2; thioether N-13) is less than 50 nM. The figure for `CC(=O)Nc1ccc(-c2ccc(C[C@@H]3NC(=O)[C@H](Cc4ccc(-c5ccccc5)cc4)NC(=O)[C@H](CN4CCOCC4)NC(=O)CSC[C@@H](C(=O)NCC(N)=O)NC(=O)[C@H](CC(C)C)NC(=O)[C@H](Cc4ccc(O)cc4)NC(=O)[C@H](C(C)C)NC(=O)[C@@H]4CCCN4C(=O)[C@H](C(C)C)NC(=O)[C@@H](CCCNC(=N)N)NC(=O)[C@H](CC(=O)O)NC(=O)[C@@H]4CCCCN4C(=O)CN(C)C3=O)cc2)cc1` [Example 182] ({CH2CO}-[Ala(morpholin-4-yl)][Bip][Bip(4'-NHAc)][Sar][Pip]D[dR]VPVYLCG-NH2; thioether N-13) is 50 to 200 nM; for `CC(=O)Nc1ccc(-c2ccc(C[C@@H]3NC(=O)[C@H](Cc4ccc(-c5ccccc5)cc4)NC(=O)[C@H](CN4CCOCC4)NC(=O)CSC[C@@H](C(=O)NCC(N)=O)NC(=O)[C@H](CC(C)C)NC(=O)[C@H](Cc4ccc(O)cc4)NC(=O)[C@H](C(C)C)NC(=O)[C@@H]4CCCN4C(=O)[C@H](C(C)C)NC(=O)[C@@H](CCCNC(=N)N)NC(=O)[C@H](CC(=O)O)NC(=O)[C@@H]4C[C@H](O)CN4C(=O)CN(C)C3=O)cc2)cc1` [Example 183] ({CH2CO}-[Ala(morpholin-4-yl)][Bip][Bip(4'-NHAc)][Sar][cisHyp]D[dR]VPVYLCG-NH2; thioether N-13) it is 50 to 200 nM; for `CC(=O)Nc1ccc(-c2ccc(C[C@@H]3NC(=O)[C@H](Cc4ccc(-c5ccccc5)cc4)NC(=O)[C@H](CN4CCOCC4)NC(=O)CSC[C@@H](C(=O)NCC(N)=O)NC(=O)[C@H](CC(C)C)NC(=O)[C@H](Cc4ccc(O)cc4)NC(=O)[C@H](C(C)C)NC(=O)[C@@H]4CCCN4C(=O)[C@H](C(C)C)NC(=O)[C@@H](CCCNC(=N)N)NC(=O)[C@H](CC(=O)O)NC(=O)[C@@H]4C[C@H](N)CN4C(=O)CN(C)C3=O)cc2)cc1` [Example 184] ({CH2CO}-[Ala(morpholin-4-yl)][Bip][Bip(4'-NHAc)][Sar][Pro(4S-NH2)]D[dR]VPVYLCG-NH2; thioether N-13) it is less than 50 nM. The result for `CC(=O)Nc1ccc(-c2ccc(C[C@@H]3NC(=O)[C@H](Cc4ccc(-c5ccc(C(=O)O)cc5)cc4)NC(=O)[C@H](CN4CCOCC4)NC(=O)CSC[C@@H](C(=O)NCC(N)=O)NC(=O)[C@H](CC(C)C)NC(=O)[C@H](CCCNC(=N)N)NC(=O)[C@H](C(C)C)NC(=O)[C@@H]4CCN4C(=O)[C@H](C(C)C)NC(=O)[C@@H](CCCNC(=N)N)NC(=O)[C@H](CC(=O)O)NC(=O)[C@H](Cc4ccccn4)NC(=O)CN(C)C3=O)cc2)cc1` [Example 185] ({CH2CO}-[Ala(morpholin-4-yl)][Bip(4'-COOH)][Bip(4'-NHAc)][Sar][2Pal]D[dR]V[Aze]VRLCG-NH2; thioether N-13) reads less than 50 nM.
